The target of data set [1] is 3R Shaker Kv channel (M356R/A359R) (Drosophila melanogaster, UniProt P08510, A359R/DEL6-46/M356R). The data set can be described thus: in vitro. Format: cell-based. Particulars: for G(V) shift: mean. An excerpt:
(§1) Experiments were made with the Shaker H4 channel incapable of fast N-type inactivation due to a Δ6-46 deletion, referred to as the wt Shaker Kv channel. The 3R Shaker Kv channel with two additional positively charged arginines (M356R/A359R) in the extracellular end of S4, was also used.
(§2) For the Shaker channels, Bluescript II KS(+) plasmid was linearized with HindIII and synthesis of cRNA were made with the T7 mMessage mMachine kit (Ambion, Austin, Tex.). Point mutations around S4, on the Shaker Kv channel, were introduced using QuickChange Site-Directed Mutagenesis Kit (Agilent Technologies, Santa Clara, Calif.) and sequencing were used for verification.
(§3) 50 nl cRNA was injected into Xenopus laevis oocytes using a Nanoject injector (Drummond Scientific, Broomall, Pa.) and the oocytes were stored at 8° C. in a modified Barth's solution (MBS) before experiments (16° C., M-channel, 1-2 days). The MBS contained (in mM): 88 NaCl, 1 KCl, 2.4 NaHCO3, 15 HEPES, 0.33 Ca(NO3)2, 0.41 CaCl2), and 0.82 MgSO4, pH was adjusted to 7.5 by NaOH and the MBS was supplemented sodium pyruvate (2.5 mM). All animal experiments were approved by the Linkoping's local Animal Care and Use Committee.
(§4) Currents were measured 1-6 days after cRNA injection using the two-electrode voltage clamp technique (GeneClamp 500B amplifier, Axon instruments). Signals were low pass filtered at 5 kHz and digitized by a Digidata 1440A converter (Molecular Devices, Sunnyvale, Calif.). The amplifiers leak compensation was used and Clampex 10.2 software (Molecular Devices) was used to obtain data and create voltage protocols. The extracellular control solution contained (in mM): 1 KCl, 88 NaCl, 0.8 MgCl2, 0.4 CaCl2) and 15 HEPES. pH were adjusted with NaOH. Electrode pipettes were made from borosilicate glass capillaries (Harvard apparatus, Kent, UK) using a two stage electrode puller (Narishige, Tokyo, Japan) and resistance was between 0.5-2.0 MO once filled with 3 M KCl solution. In the voltage protocol for the wt and 3R Shaker channel, holding potential was set to −80 mV and steady-state currents were measured at voltages between −80 and +50 mV (wt Shaker Kv channel) or +70 mV (3R Shaker Kv channel), using 5 mV increments, 100 ms. […] Physiol. 143, 173-182 (2014). For the M-channel, holding potential was set to −100 mV, test-voltages were measured between −120 and +50 mV (10 mV increments for 2 s) and tail currents were measured at −30 mV.
(§5) Control solution was perfused to the recording chamber (0.5 ml/min) and the test solution was added manually with a syringe, in a volume large enough to replace the control solution manifold. Resin acids compounds were dissolved in DMSO (100 mM) and stored at −20° C. Just prior to experiment the compound was diluted to desired concentration in control solution. Recovery was measured after continuously perfusion of control solution, maximum 5 min. All recordings were made with the perfusion off. Experiments were carried out in room temperature (20-23° C.) and chemicals were purchased from Sigma Aldrich if not stated otherwise.
(§6) Currents were leak subtracted and steady-state currents were measured 80-86 ms after onset of the test voltages (Clampfit 10.5, Molecular Devices). K conductance, GK, was calculated using,
(§7) where IK is the steady-state current, V the absolute membrane voltage and VK the reversal potential for K ions (−80 mV), and the following Boltzmann curve was used to fit the data:
(§8) GK(V)=A/(1+exp((V1/2−V)/s)^n (2)
(§9) where A is the amplitude of the curve, V1/2 the midpoint when n=1, s the slope and n an exponent for better curve fitting, set to n=4. The voltage shift was calculated at 10% of maximal conductance in control curve.
(§10) To quantify the concentration dependence or pH dependence of the GK(V) shifts the following equation was used:
(§11) ΔVG(V)=ΔVMAX/(1+c1/2/c), (3)

Data set [2] concerns the target wt Shaker Kv channel (Shaker H4, Δ6-46) (Drosophila melanogaster, UniProt P08510, DEL6-46). Put plainly: Two-electrode voltage clamp, G(V) shift on wt Shaker Kv channel expressed in Xenopus laevis oocytes. Particulars: mean. Type of data set: cell-based.
From the text: as §1, §2, §3, §4, §5, §6, §7, §8, §9, §10, §11
A general note: Two-electrode voltage clamp is typically applied to oocytes expressing channels or transporters.

Chain of wt Shaker Kv channel (Shaker H4, Δ6-46) (P08510 other isoform, or with tags, fused parts or gaps DEL6-46): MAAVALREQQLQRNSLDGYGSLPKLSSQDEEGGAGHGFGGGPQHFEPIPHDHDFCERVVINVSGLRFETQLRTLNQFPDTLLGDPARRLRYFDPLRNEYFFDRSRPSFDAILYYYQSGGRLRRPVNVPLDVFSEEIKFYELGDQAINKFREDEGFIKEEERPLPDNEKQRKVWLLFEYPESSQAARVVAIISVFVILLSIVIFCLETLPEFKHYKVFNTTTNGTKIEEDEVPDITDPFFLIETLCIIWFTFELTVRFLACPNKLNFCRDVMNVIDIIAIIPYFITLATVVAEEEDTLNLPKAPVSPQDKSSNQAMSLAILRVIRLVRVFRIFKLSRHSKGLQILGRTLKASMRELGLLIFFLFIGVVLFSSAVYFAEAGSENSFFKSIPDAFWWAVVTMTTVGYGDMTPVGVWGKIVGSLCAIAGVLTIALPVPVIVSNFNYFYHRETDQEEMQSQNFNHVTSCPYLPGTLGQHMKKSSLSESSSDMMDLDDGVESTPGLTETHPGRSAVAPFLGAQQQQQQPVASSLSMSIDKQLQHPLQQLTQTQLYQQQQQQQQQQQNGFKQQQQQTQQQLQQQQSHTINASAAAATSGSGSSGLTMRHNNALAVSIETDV
Chain of 3R Shaker Kv channel (M356R/A359R) (P08510 other isoform, or with tags, fused parts or gaps DEL6-46/M356R/A359R): as the sequence (P08510 other isoform, or with tags, fused parts or gaps DEL6-46) above, with M315R, A318R counted along it

Regarding `CC(C)c1ccc2c(c1)CC[C@H]1[C@](C)(COP(=O)(O)O)CCC[C@]21C` [Wu162, ((1R,4aS,10aR)-7-isopropyl-1,4a-dimethyl-1,2,3,4,4a,9,10,10a-octahydrophenanthren-1-yl)methyl Dihydrogen Phosphate], the “G(V) shift” value in data set [1] (pH 6.5, 100 μM) was −10.03 mV; in data set [1] (pH 7.4, 100 μM) it was −11.80 mV; in data set [1] (pH 9, 100 μM) it was −11.55 mV; in data set [1] (pH 10, 100 μM), −8.93 mV; in data set [2] (pH 7.4, 100 μM) it was −1.18 mV.
For the molecule `CC(C)c1ccc2c(c1)CC[C@H]1[C@](C)(C(=O)N[C@@H](CC(=O)O)C(=O)O)CCC[C@]21C` [Wu148, ((1R,4aS,10aR)-7-isopropyl-1,4a-dimethyl-1,2,3,4,4a,9,10,10a-octahydrophenanthrene-1-carbonyl)-L-aspartic acid], the “G(V) shift” value in data set [1] (pH 5.5, 100 μM) is given as −13.30 mV; in data set [1] (pH 6.5, 100 μM), −14.23 mV; in data set [1] (pH 7.4, 100 μM), −14.47 mV; in data set [1] (pH 9, 100 μM), −11.20 mV; in data set [1] (pH 10, 100 μM) it was −9.53 mV; in data set [2] (pH 7.4, 100 μM), −0.73 mV.
Regarding `CC(C)c1ccc2c(c1)CC[C@H]1[C@](C)(C(=O)NCCCS(=O)(=O)O)CCC[C@]21C` [Wu150, 3-((1R,4aS,10aR)-7-isopropyl-1,4a-dimethyl-1,2,3,4,4a,9,10,10a-octahydrophenanthrene-1-carboxamido)propane-1-sulfonic acid], the “G(V) shift” value in data set [1] (pH 7.4, 100 μM) is reported as −9.98 mV; in data set [2] (pH 7.4, 100 μM), −4.18 mV.
Regarding `CC(C)c1ccc2c(c1)CC[C@H]1[C@](C)(C(=O)NCP(=O)(O)O)CCC[C@]21C` [Wu158, (((1R,4aS,10aR)-7-isopropyl-1,4a-dimethyl-1,2,3,4,4a,9,10,10a-octahydrophenanthrene-1-carboxamido)methyl)phosphonic Acid], the “G(V) shift” value in data set [1] (pH 7.4, 100 μM) is reported as −4.94 mV.
Regarding `CC(C)C1=CC2=CC[C@H]3[C@](C)(C(=O)NCCCC(=O)O)CCC[C@]3(C)C2CC1` (stereo partly drawn) [Wu157, 4-((1R,4aR,4bR,10aR)-7-isopropyl-1,4a-dimethyl-1,2,3,4,4a,4b,10,10a-decahydrophenanthrene-1-carboxamido)butanoic Acid], the “G(V) shift” value in data set [1] (pH 7.4, 100 μM) is listed as −7.10 mV.
Turning to `CC(C)c1ccc2c(c1)CCC1[C@](C)(/C=C/C(=O)O)CCC[C@]21C` (stereo partly drawn) [Wu176, (E)-3-((1S,4aS)-7-isopropyl-1,4a-dimethyl-1,2,3,4,4a,9,10,10a-octahydrophenanthren-1-yl)acrylic Acid], the pKa at 100 μM in data set [1] (Drosophila, 100 μM, functional pH dependence, read-out: Functional pKa (pH where half of the maximum G(V) shift was achieved)) stood at 6.8. Further, the “G(V) shift” value is listed as 2.80 mV in data set [1] (pH 5.5, 100 μM); −15.16 mV in data set [1] (pH 7.4, 100 μM); −17.10 mV in data set [1] (pH 10, 100 μM).
For `CC(C)c1ccc2c(c1)CC[C@H]1[C@](C)(C(=O)NCCC(=O)O)CCC[C@]21C` [Wu152, 3-((1R,4aS,10aR)-7-isopropyl-1,4a-dimethyl-1,2,3,4,4a,9,10,10a-octahydrophenanthrene-1-carboxamido)propanoic Acid], the “G(V) shift” value is listed as −6.2 mV in data set [1] (pH 7.4, 100 μM); −5.20 mV in data set [1] (pH 10, 100 μM); −1.17 mV in data set [2] (pH 10, 100 μM).
`CC(C)c1ccc2c(c1)CC[C@H]1[C@](C)(C(=O)NCCC(=O)NCCC(=O)O)CCC[C@]21C` [Wu153, 3-(3-((1R,4aS,10aR)-7-isopropyl-1,4a-dimethyl-1,2,3,4,4a,9,10,10a-octahydrophenanthrene-1-carboxamido)propanamido)propanoic Acid]: the “G(V) shift” value in data set [1] (pH 7.4, 100 μM) was −2.54 mV.
On the same count and under the same terms, as for `CC(C)c1ccc2c(c1)CC[C@H]1[C@](C)(C(=O)NCCCC(=O)NCCCC(=O)O)CCC[C@]21C` [Wu151, 4-(4-((1R,4aS,10aR)-7-isopropyl-1,4a-dimethyl-1,2,3,4,4a,9,10,10a-octahydrophenanthrene-1-carboxamido)butanamido)butanoic Acid], the figure is −2.53 mV.
Take `CC(C)C1=CC2=CC[C@@H]3[C@](C)(CCC[C@@]3(C)C(=O)O)[C@H]2CC1` [AA, abietic acid, reference compound]: in data set [1] (pH 7.4, 100 μM), the “G(V) shift” value is given as −16.05 mV.

The values above are taken from patent publication US20200239412A1, “NEW DERIVATES OF DHAA WITH ELECTROSTATIC TUNING” (priority 2017, published 2020).
